Measured values reported in US11485742B2, “2-azaspiro[3.4]octane derivatives as M4 agonists” (NOVARTIS AG, priority 2019, dated 2022).

Key:
[1] = target: T1, human cloned CHRM2 receptor (Homo sapiens, UniProt P08172); experiment: CHRM2 Ca++ Flux Assay (M2_CHO cells, agonist mode); assay type: cell-based; conditions: M2 CHO cells; for EC50: agonist mode, geometric mean if tested more than once, read-out: M2 FDSS EC50; for Emax: Percent Activity (PA) measured to EC100 of Carbachol, read-out: M2 FDSS PA %
T1 construct: expressed in transfected cells; host or cells: CHO-K1 (M2_CHO)
T1 sequence (P08172 1-466): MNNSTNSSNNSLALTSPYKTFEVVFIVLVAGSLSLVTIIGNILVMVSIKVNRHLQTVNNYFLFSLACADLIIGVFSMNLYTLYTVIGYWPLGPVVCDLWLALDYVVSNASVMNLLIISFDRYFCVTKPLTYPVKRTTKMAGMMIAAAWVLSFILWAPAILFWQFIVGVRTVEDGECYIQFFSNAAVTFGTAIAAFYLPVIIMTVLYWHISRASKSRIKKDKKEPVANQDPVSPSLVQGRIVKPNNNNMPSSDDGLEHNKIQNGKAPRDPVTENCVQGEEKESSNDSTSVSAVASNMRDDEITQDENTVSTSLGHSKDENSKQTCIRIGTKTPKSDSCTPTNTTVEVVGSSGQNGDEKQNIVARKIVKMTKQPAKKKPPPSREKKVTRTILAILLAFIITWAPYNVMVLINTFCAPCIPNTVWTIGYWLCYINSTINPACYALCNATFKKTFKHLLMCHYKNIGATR
In short: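 CHO-K1 cells stably expressing human CHRM2 were plated overnight at 12K cells/well and loaded with Ca++ dye for 1–2 h. They were then held 60 minutes in HBSS −Ca/−Mg, 20 mM HEPES, 2.5 mM probenecid, 20 μM ATP. Agonist-mode Ca++ flux was read over 3 minutes. Four-parameter fits of triplicates gave percent activity relative to carbachol EC100.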

[2] = target: T2, human cloned CHRM3 receptor (Homo sapiens, UniProt P20309); experiment: CHRM3 Ca++ Flux Assay (M3_CHO cells, agonist mode); assay type: cell-based; conditions: for Emax: Percent Activity (PA) measured to EC100 of Carbachol, read-out: M3 FDSS PA %; for EC50: agonist mode, geometric mean if tested more than once, read-out: M3 FDSS EC50
T2 construct: expressed in transfected cells; host or cells: CHO-K1 (M3_CHO)
T2 sequence (P20309 whole entry): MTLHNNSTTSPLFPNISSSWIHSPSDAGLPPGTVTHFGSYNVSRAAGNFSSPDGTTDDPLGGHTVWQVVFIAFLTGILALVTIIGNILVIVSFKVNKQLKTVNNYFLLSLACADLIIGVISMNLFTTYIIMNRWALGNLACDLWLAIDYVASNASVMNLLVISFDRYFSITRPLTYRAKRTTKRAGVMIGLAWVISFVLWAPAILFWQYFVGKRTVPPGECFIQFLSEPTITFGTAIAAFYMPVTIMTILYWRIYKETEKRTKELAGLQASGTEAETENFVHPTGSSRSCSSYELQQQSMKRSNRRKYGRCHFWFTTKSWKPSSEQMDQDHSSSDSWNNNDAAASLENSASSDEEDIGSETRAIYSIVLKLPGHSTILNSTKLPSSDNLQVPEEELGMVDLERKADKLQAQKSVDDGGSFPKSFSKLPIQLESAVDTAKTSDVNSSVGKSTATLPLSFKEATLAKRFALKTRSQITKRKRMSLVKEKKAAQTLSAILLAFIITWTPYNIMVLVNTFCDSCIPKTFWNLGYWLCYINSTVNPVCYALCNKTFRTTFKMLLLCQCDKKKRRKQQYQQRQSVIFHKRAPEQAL
In short: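 CHO-K1 cells stably expressing human M3 or M5 receptor, dye-loaded ≥1 h, treated with 11-point compound doses in triplicate; Ca++ flux read over 3 min (FDSS). Agonist-mode four-parameter fit; percent activity relative to carbachol EC100; repeat tests reported as geometric mean.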

| Compound | EC50 [1] [nM] | Emax [1] [%] | Emax [2] [%] | EC50 [2] [µM] |
| --- | --- | --- | --- | --- |
| Fc1ccc(OC2COC2)c(C2CCN([C@@H]3COC4(C3)CN(c3nnco3)C4)CC2)c1 [Example 1A, (S)-7-(4-(5-fluoro-2-(oxetan-3-yloxy)phenyl)piperidin-1-yl)-2-(1,3,4-oxadiazol-2-yl)-5-oxa-2-azaspiro[3.4]octane] | 536 | 32 | 0 | > 25 |
| Fc1ccc(OC[C@H]2CCOC2)c(C2CCN([C@@H]3COC4(C3)CN(c3nnco3)C4)CC2)c1 [Example 1I, (S)-7-(4-(5-fluoro-2-(((S)-tetrahydrofuran-3-yl)methoxy)phenyl)piperidin-1-yl)-2-(1,3,4-oxadiazol-2-yl)-5-oxa-2-azaspiro[3.4]octane] | 531 | 32 | 0 | > 25 |
| Fc1ccc(OCC2CCOCC2)c(C2CCN([C@@H]3COC4(C3)CN(c3nnco3)C4)CC2)c1 [Example 1J, (S)-7-(4-(5-fluoro-2-((tetrahydro-2H-pyran-4-yl)methoxy)phenyl)piperidin-1-yl)-2-(1,3,4-oxadiazol-2-yl)-5-oxa-2-azaspiro[3.4]octane] | 874 | 35 | 0 | > 25 |
| COC(C)(C)CCOc1ccc(F)cc1C1CCN([C@@H]2COC3(C2)CN(c2nnco2)C3)CC1 [Example 1K, (S)-7-(4-(5-fluoro-2-(3-methoxy-3-methylbutoxy)phenyl)piperidin-1-yl)-2-(1,3,4-oxadiazol-2-yl)-5-oxa-2-azaspiro[3.4]octane] | > 25000 | 0 | 0 | > 25 |
| COCCOc1ccc(F)cc1C1CCN([C@@H]2COC3(C2)CN(c2nnco2)C3)CC1 [Example 1L, (S)-7-(4-(5-fluoro-2-(2-methoxyethoxy)phenyl)piperidin-1-yl)-2-(1,3,4-oxadiazol-2-yl)-5-oxa-2-azaspiro[3.4]octane] | > 25000 | 0 | 0 | > 25 |
| Fc1ccc(OC2COCOC2)c(C2CCN([C@@H]3COC4(C3)CN(c3nnco3)C4)CC2)c1 [Example 1M, (S)-7-(4-(2-((1,3-dioxan-5-yl)oxy)-5-fluorophenyl)piperidin-1-yl)-2-(1,3,4-oxadiazol-2-yl)-5-oxa-2-azaspiro[3.4]octane] | 752 | 23 | 0 | > 25 |
| CC(C)(O)CCOc1ccc(F)cc1C1CCN([C@@H]2COC3(C2)CN(c2nnco2)C3)CC1 [Example 1N, (S)-4-(2-(1-(2-(1,3,4-oxadiazol-2-yl)-5-oxa-2-azaspiro[3.4]octan-7-yl)piperidin-4-yl)-4-fluorophenoxy)-2-methylbutan-2-ol] | > 25000 | 0 | 0 | > 25 |
| c1ccc(C2CCN([C@@H]3COC4(C3)CN(c3nnco3)C4)CC2)c(O[C@@H]2CCOC2)c1 [Example 1O, (S)-2-(1,3,4-oxadiazol-2-yl)-7-(4-(2-(((R)-tetrahydrofuran-3-yl)oxy)phenyl)piperidin-1-yl)-5-oxa-2-azaspiro[3.4]octane] | 611 | 36 | 0 | > 25 |
| c1ccc(C2CCN([C@@H]3COC4(C3)CN(c3nnco3)C4)CC2)c(OC2COC2)c1 [Example 1P, (S)-2-(1,3,4-oxadiazol-2-yl)-7-(4-(2-(oxetan-3-yloxy)phenyl)piperidin-1-yl)-5-oxa-2-azaspiro[3.4]octane] | 1090 | 51 | 0 | > 25 |
| COc1ccccc1C1CCN([C@@H]2COC3(C2)CN(c2nnco2)C3)CC1 [Example 1Q, (S)-7-(4-(2-methoxyphenyl)piperidin-1-yl)-2-(1,3,4-oxadiazol-2-yl)-5-oxa-2-azaspiro[3.4]octane] | 3810 | 16 | 0 | > 25 |
| Fc1cc(O[C@@H]2CCOC2)c(C2CCN([C@@H]3COC4(C3)CN(c3nnco3)C4)CC2)cc1F [Example 1R, (S)-7-(4-(4,5-difluoro-2-(((R)-tetrahydrofuran-3-yl)oxy)phenyl)piperidin-1-yl)-2-(1,3,4-oxadiazol-2-yl)-5-oxa-2-azaspiro[3.4]octane] | 359 | 32 | 0 | > 25 |
| COc1cc(F)ccc1C1CCN([C@@H]2COC3(C2)CN(c2nnco2)C3)CC1 [Example 1S, (S)-7-(4-(4-fluoro-2-methoxyphenyl)piperidin-1-yl)-2-(1,3,4-oxadiazol-2-yl)-5-oxa-2-azaspiro[3.4]octane] | 656 | 13 | 0 | > 25 |
| CC(C)(O)CCOc1cc(F)ccc1C1CCN([C@@H]2COC3(C2)CN(c2nnco2)C3)CC1 [Example 1T, (S)-4-(2-(1-(2-(1,3,4-oxadiazol-2-yl)-5-oxa-2-azaspiro[3.4]octan-7-yl)piperidin-4-yl)-5-fluorophenoxy)-2-methylbutan-2-ol] | > 25000 | 0 | 0 | > 25 |
| CC(C)(O)COc1ccc(F)cc1C1CCN([C@@H]2COC3(C2)CN(c2nnco2)C3)CC1 [Example 1U, (S)-1-(2-(1-(2-(1,3,4-oxadiazol-2-yl)-5-oxa-2-azaspiro[3.4]octan-7-yl)piperidin-4-yl)-4-fluorophenoxy)-2-methylpropan-2-ol] | > 25000 | 0 | 0 | > 25 |
| COc1ccc(F)cc1C1CCN([C@@H]2COC3(C2)CN(c2nnco2)C3)CC1 [Example 1V, (S)-7-(4-(5-fluoro-2-methoxyphenyl)piperidin-1-yl)-2-(1,3,4-oxadiazol-2-yl)-5-oxa-2-azaspiro[3.4]octane] | 598 | 35 | 0 | > 25 |
| c1ccc(C2CCN([C@@H]3COC4(C3)CN(c3nnco3)C4)CC2)c(-c2cncnc2)c1 [Example 1W, (S)-2-(1,3,4-oxadiazol-2-yl)-7-(4-(2-(pyrimidin-5-yl)phenyl)piperidin-1-yl)-5-oxa-2-azaspiro[3.4]octane] | 527 | 68 | 0 | > 25 |
| c1ccc(C2CCN([C@@H]3COC4(C3)CN(c3nnco3)C4)CC2)c(-c2ncco2)c1 [Example 1X, (S)-2-(1,3,4-oxadiazol-2-yl)-7-(4-(2-(oxazol-2-yl)phenyl)piperidin-1-yl)-5-oxa-2-azaspiro[3.4]octane] | 2480 | 25 | 0 | > 25 |
| Cc1nnc(-c2ccccc2C2CCN([C@@H]3COC4(C3)CN(c3nnco3)C4)CC2)o1 [Example 1Y, (S)-7-(4-(2-(5-methyl-1,3,4-oxadiazol-2-yl)phenyl)piperidin-1-yl)-2-(1,3,4-oxadiazol-2-yl)-5-oxa-2-azaspiro[3.4]octane] | 874 | 35 | 0 | > 25 |
| Fc1ccc(OCC2COC2)c(C2CCN([C@@H]3COC4(C3)CN(c3nncs3)C4)CC2)c1 [Example 2A, (S)-7-(4-(5-fluoro-2-(oxetan-3-ylmethoxy)phenyl)piperidin-1-yl)-2-(1,3,4-thiadiazol-2-yl)-5-oxa-2-azaspiro[3.4]octane] | 520 | 46 | 0 | > 25 |
| CC1(COc2ccc(F)cc2C2CCN([C@@H]3COC4(C3)CN(c3nncs3)C4)CC2)COC1 [Example 2B, (S)-7-(4-(5-fluoro-2-((3-methyloxetan-3-yl)methoxy)phenyl)piperidin-1-yl)-2-(1,3,4-thiadiazol-2-yl)-5-oxa-2-azaspiro[3.4]octane] | 416 | 35 | 0 | > 25 |
| Cc1nnc(COc2ccc(F)cc2C2CCN([C@@H]3COC4(C3)CN(c3nnco3)C4)CC2)s1 [Example 2E, (S)-7-(4-(5-fluoro-2-((5-methyl-1,3,4-thiadiazol-2-yl)methoxy)phenyl)piperidin-1-yl)-2-(1,3,4-oxadiazol-2-yl)-5-oxa-2-azaspiro[3.4]octane] | 81 | 59 | 0 | > 25 |
| Cc1nnc(COc2ccc(F)cc2C2CCN([C@@H]3COC4(C3)CN(c3nnco3)C4)CC2)o1 [Example 2F, (S)-7-(4-(5-fluoro-2-((5-methyl-1,3,4-oxadiazol-2-yl)methoxy)phenyl)piperidin-1-yl)-2-(1,3,4-oxadiazol-2-yl)-5-oxa-2-azaspiro[3.4]octane] | 113 | 67 | 0 | > 25 |
